Results: patent US8071810B2, “C5a receptor antagonists” (Jerini AG, priority 2005, dated 2011)

These compounds were tested against T1, human C5a receptor (CD88) (Homo sapiens, UniProt P21730) (assay: C5a induced enzyme (glucosaminidase) release assay in RBL cells expressing the human C5a receptor (Example 28)). Details: RBL cells with human C5aR; read-out: IC50 for the inhibition of C5a induced enzyme release.
T1 construct: expressed in transfected cells; host or cells: rat basophilic leukemia (RBL) cells, stably transfected
T1 sequence (P21730 1-350): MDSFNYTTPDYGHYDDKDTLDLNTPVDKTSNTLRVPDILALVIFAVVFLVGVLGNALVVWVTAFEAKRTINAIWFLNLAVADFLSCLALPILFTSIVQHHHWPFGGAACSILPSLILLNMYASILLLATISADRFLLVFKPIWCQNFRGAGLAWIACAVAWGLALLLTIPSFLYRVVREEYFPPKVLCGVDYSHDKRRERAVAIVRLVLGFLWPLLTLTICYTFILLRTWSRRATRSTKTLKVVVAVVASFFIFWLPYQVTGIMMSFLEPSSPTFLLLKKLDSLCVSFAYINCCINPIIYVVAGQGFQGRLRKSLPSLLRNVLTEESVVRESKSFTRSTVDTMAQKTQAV
Type: cell-based
Method: Basophile leukemia cells from rats (RBL), which express the human C5a receptor (CD88), are cultivated in DMEM with 10% fetal calf serum, 100 U/ml penicillin, 100 μg/ml streptomycin and 2 mM glutamin (all constituents are from Biochrome, Berlin) at 37° C. and with 10% CO2 until a confluent layer is obtained. All following details refer to a tissue culture flask with 75 cm^2 surface. The used up medium is removed. The cells are washed with 10 ml PBS (Dulbecco's PBS, Biochrome) and then covered with 3 ml cell dissociation solution (CDS, Sigma). The cells are incubated for 1 minute at room temperature. Then the CDS is removed and the cells are incubated for further 10-15 minutes at 37° C. to detach the cells completely from the flask. 20 μl solution of the compound to be testet are used in the assay. […] The dilution series are prepared in ⅓ or ½ steps. […] The cells are counted and centrifuged (200 g, 10 min). The cell pellet is taken up with pre-heated HAG-CM, and the cell density is adjusted to 2×10^6 Zellen/ml. The cells are incubated for 5 minutes at 37° C. 2.7 μl of a cytochalasin B solution (1000 μg/ml in DMSO, Sigma) are added per ml cell suspension. The Zellen are incubated for another 3 min at 37° C. Then, 75 μl of the cell suspension are added to the 20 μl solution containing the compounds to be tested. […] The cells are again incubated for 10 minutes at 37° C. […] After this the plates are put on ice and centrifuged for 3 minutes at 1200×g and 4° C. […] The plate is incubated for 1 hour at 37° C. […] The IC50 value is determined by solving the four parameter equation y=((A−D)/(1+(x/C)^B))+D.

Q: For `Cc1ccc(CN(Cc2ccccc2)C(=O)c2ccccc2-n2cccc2)cc1` [Compound 8, N-Benzyl-N-(4-methyl-benzyl)-2-pyrrol-1-yl-benzamide, reference compound], which IC50 is on record?
A: 1920 nM

Q: Which IC50 does the source give for `CCc1c(N)cc(Cl)c(CC)c1NC(=O)N(Cc1ccc(Cl)nc1)c1ccc(C(C)C)cc1` here?
A: 62 nM

Q: For `CCc1cccc(CC)c1NC(=O)N(Cc1ccc(OC)cc1)c1ccc(C(C)C)cc1` [compound 26, 3-(2,6-diethyl-phenyl)-1-(4-isopropyl-phenyl)-1-(4-methoxy-benzyl)-urea], which IC50 is on record?
A: 524 nM

Q: With `CCc1c(N)cc(Cl)c(CC)c1NC(=O)N(Cc1ccc(Cl)cc1)c1ccc(NC)cc1` as the compound, how does the IC50 read?
A: 19 nM

Q: For `CCc1c(N)cc(Cl)c(CC)c1NC(=O)N(c1ccc(C(C)C)cc1)[C@@H](C)c1ccc(C)cc1` [compound 73, (S)-3-(3-amino-5-chloro-2,6-diethyl-phenyl)-1-(4-isopropyl-phenyl)-1-(1-p-tolyl-ethyl)-urea], which IC50 is on record?
A: 32 nM

Q: With `CCc1c(N)cc(Cl)c(CC)c1NC(=O)N(c1ccc(C(C)C)cc1)[C@H](C)c1ccc(OC)cc1` [compound 56, (R)-3-(3-amino-5-chloro-2,6-diethyl-phenyl)-1-(4-isopropyl-phenyl)-1-[1-(4-methoxy-phenyl)ethyl]-urea] as the compound, how does the IC50 read?
A: 619 nM

Same assay, conditions: inhibition of C5a induced enzyme release, RBL cells with human C5aR; read-out: Activity-range (antagonistic activity, IC50 enzyme release)

Q: `C#Cc1ccc(N(Cc2ccc(OC)cc2)C(=O)Nc2c(CC)c(N)cc(Cl)c2CC)cc1` [compound 85, 3-(3-amino-5-chloro-2,6-diethyl-phenyl)-1-(4-ethynyl-phenyl)-1-(4-methoxy-benzyl)-urea] was tested. Which IC50 did it give?
A: 200 to 5000 nM

Q: For `Cc1ccc(CN(Cc2ccccc2)C(=O)c2ccccc2-n2cccc2)cc1` [Compound 8, N-Benzyl-N-(4-methyl-benzyl)-2-pyrrol-1-yl-benzamide, reference compound], which IC50 is on record?
A: 200 to 5000 nM

Q: For `CCc1c(N)cc(Cl)c(CC)c1NC(=O)N(Cc1ccc(Cl)cn1)c1ccc(C(C)C)cc1` [compound 105, 3-(3-amino-5-chloro-2,6-diethyl-phenyl)-1-(5-chloro-pyridin-2-ylmethyl)-1-(4-isopropyl-phenyl)-urea], which IC50 is on record?
A: 200 to 5000 nM

Q: `CCc1ccc(N)c(CC)c1NC(=O)N(c1ccc(C(C)C)cc1)[C@@H](C)c1ccc(OC)cc1` [compound 71, (S)-3-(3-amino-2,6-diethyl-phenyl)-1-(4-isopropyl-phenyl)-1-[1-(4-methoxy-phenyl)-ethyl]-urea] was tested. Which IC50 did it give?
A: 60 to 200 nM

Q: For `CCc1ccc(N(Cc2ccc(-n3cccn3)cc2)C(=O)Nc2c(CC)c(N)cc(Cl)c2CC)cc1` [compound 110, 3-(3-amino-5-chloro-2,6-diethyl-phenyl)-1-(4-ethyl-phenyl)-1-(4-pyrazol-1-yl-benzyl)-urea], which IC50 is on record?
A: 200 to 5000 nM

Q: With `CCc1c(N)cc(Cl)c(CC)c1NC(=O)N(Cc1ccc(C)nc1)c1ccc(CC(F)(F)F)cc1` [compound 126, 3-(3-amino-5-chloro-2,6-diethyl-phenyl)-1-(6-methyl-pyridin-3-ylmethyl)-1-[4-(2,2,2-trifluoro-ethyl)-phenyl]-urea] as the compound, how does the IC50 read?
A: 60 to 200 nM

Q: For `CCc1c(N)cc(Cl)c(CC)c1NC(=O)N(c1ccc2[nH]ccc2c1)[C@@H](C)c1ccc(Cl)cc1` [compound 141, (S)-3-(3-amino-5-chloro-2,6-diethyl-phenyl)-1-[1-(4-chloro-phenyl)-ethyl]-1-(1H-indol-5-yl)-urea], which IC50 is on record?
A: < 60 nM

Q: Which IC50 does the source give for `CCc1c(N)cc(Cl)c(CC)c1NC(=O)N(c1ccc(C(C)C)cc1)[C@@H](C)c1ccc(Cl)cc1` [compound 78, (S)-3-(3-amino-5-chloro-2,6-diethyl-phenyl)-1-[1-(4-chlor-phenyl)-ethyl]-1-(4-isopropyl-phenyl)-urea] here?
A: < 60 nM

Q: Which IC50 does the source give for `CCc1c(N)cc(Cl)c(CC)c1NC(=O)N(Cc1ccc(C(F)(F)F)cc1)c1ccc(C(C)C)cc1` [compound 49, 3-(3-amino-5-chloro-2,6-diethyl-phenyl)-1-(4-isopropyl-phenyl)-1-(4-trifluormethyl-benzyl)-urea] here?
A: 200 to 5000 nM

Q: `CCc1c(N)cc(Cl)c(CC)c1NC(=O)N(Cc1cccnc1)c1ccc(C(C)C)cc1` [compound 74, 3-(3-amino-5-chloro-2,6-diethyl-phenyl)-1-(4-isopropyl-phenyl)-1-pyridin-3-ylmethyl-urea] was tested. Which IC50 did it give?
A: 200 to 5000 nM

Q: How did the IC50 turn out when `CCc1c(Cl)cc(NCC(=O)OC(C)(C)C)c(CC)c1NC(=O)N(Cc1ccc(OC)cc1)c1ccc(C(C)C)cc1` [compound 45, {5-chloro-2,4-diethyl-3-[3-(4-isopropyl-phenyl)-3-(4-methoxy-benzyl)-ureido]-phenylamino} acetic acid tert-butyl ester] was run?
A: 60 to 200 nM

Q: `CCc1ccc(N)c(CC)c1NC(=O)N(c1ccc(C(C)C)cc1)[C@@H](C)c1ccc(C)cc1` [compound 69, (S)-3-(3-amino-2,6-diethyl-phenyl)-1-(4-isopropyl-phenyl)-1-(1-p-tolyl-ethyl)-urea] was tested. Which IC50 did it give?
A: 60 to 200 nM

Q: How did the IC50 turn out when `CCc1ccc(N)c(CC)c1NC(=O)N(Cc1ccc(OC)nc1)c1ccc(C(C)C)cc1` [compound 48, 3-(3-amino-2,6-diethyl-phenyl)-1-(4-isopropyl-phenyl)-1-(6-methoxy-pyridin-3-ylmethyl)-urea] was run?
A: 200 to 5000 nM

Q: `CCc1c(N)cc(Cl)c(CC)c1NC(=O)N(Cc1ccc(C(F)(F)F)nc1)c1ccc(C(C)C)cc1` [compound 87, 3-(3-amino-5-chloro-2,6-diethyl-phenyl)-1-(4-isopropyl-phenyl)-1-(6-trifluoromethyl-pyridin-3-ylmethyl)-urea] was tested. Which IC50 did it give?
A: 200 to 5000 nM

Q: For `CCc1c(Cl)cc(N=O)c(CC)c1NC(=O)N(c1ccc(NC)cc1)[C@@H](C)c1ccc(Cl)cc1` [compound 133, (S)-3-(3-chloro-2,6-diethyl-5-nitroso-phenyl)-1-[1-(4-chloro-phenyl)-ethyl]-1-(4-methylamino-phenyl)-urea], which IC50 is on record?
A: < 60 nM

Q: `CCc1ccc(N(Cc2ccc(C)cc2)C(=O)Nc2c(CC)c(N)cc(Cl)c2CC)cc1` [compound 53, 3-(3-amino-5-chloro-2,6-diethyl-phenyl)-1-(4-ethyl-phenyl)-1-(4-methyl-benzyl)-urea] was tested. Which IC50 did it give?
A: 60 to 200 nM

Q: `CCc1c(Cl)cc(NCc2ccco2)c(CC)c1NC(=O)N(Cc1ccc(OC)cc1)c1ccc(C(C)C)cc1` [compound 36, 3-{3-Chloro-2,6-diethyl-5-[(furan-2-ylmethyl)-amino]-phenyl}-1-(4-isopropyl-phenyl)-1-(4-methoxy-benzyl)-urea] was tested. Which IC50 did it give?
A: 200 to 5000 nM

Q: `CCc1c(N)cc(Cl)c(CC)c1NC(=O)N(c1ccc(OC)cc1CO)[C@@H](C)c1ccc(Cl)cc1` [compound 109, (S)-3-(3-amino-5-chloro-2,6-diethyl-phenyl)-1-[1-(4-chloro-phenyl)-ethyl]-1-(2-hydroxymethyl-4-methoxy-phenyl)-urea] was tested. Which IC50 did it give?
A: 200 to 5000 nM

Q: `CCc1c(N)cc(Cl)c(CC)c1NC(=O)N(Cc1ccc(OC(F)(F)F)cc1)c1ccc(C(C)C)cc1` [compound 33, 3-(3-amino-5-chloro-2,6-diethyl-phenyl)-1-(4-isopropyl-phenyl)-1-(4-trifluoromethoxy-benzyl)-urea] was tested. Which IC50 did it give?
A: 200 to 5000 nM

Q: For `Cc1ccc([C@H](C)N(C(=O)Nc2c(C)c(N)cc(Cl)c2C)c2ccc(C(C)C)cc2)cc1` [compound 79, (S)-3-(3-amino-5-chloro-2,6-dimethyl-phenyl)-1-(4-isopropyl-phenyl)-1-(1-p-tolyl-ethyl)-urea], which IC50 is on record?
A: 200 to 5000 nM

Q: Which IC50 does the source give for `CCc1c(N)cc(Cl)c(CC)c1NC(=O)N(Cc1ccc(OC)nc1)c1ccc(C(C)C)cc1` [compound 47, 3-(3-amino-5-chloro-2,6-diethyl-phenyl)-1-(4-isopropyl-phenyl)-1-(6-methoxy-pyridin-3-ylmethyl)-urea] here?
A: 200 to 5000 nM

Q: Which IC50 does the source give for `CCc1ccc(N(Cc2cnc(N(C)C)nc2)C(=O)Nc2c(CC)c(N)cc(Cl)c2CC)cc1` [compound 121, 3-(3-amino-5-chloro-2,6-diethyl-phenyl)-1-(2-dimethylamino-pyrimidin-e5-ylmethyl)-1-(4-ethyl-phenyl)-urea] here?
A: 200 to 5000 nM
